Laboratory results as given in patent US20060069043A1, “Chiral separation, characterization and biological action of optically active isomers of digoxin” (priority 2004, published 2006).
Where two headings read alike, the source gives them in different places.

Experiments:
[1] = system: gram-negative and gram-positive bacteria; settings: against both gram-negative and gram-positive bacteria; cited from earlier work
serum protein [2] = test: In vitro drug studies: ability to induce changes in digitoxin serum protein binding; assay type: in vitro ADME; settings: procainamide 5 mg/ml, phenytoin 50 mg/ml, heparin 5 IU/ml, rifampicillin 4.5 μg/ml
Protocol: The ability to induce changes in digitoxin serum protein binding was tested for the following drugs: procainamide (5 mg/ml), phenytoin (50 mg/ml), heparin (5 IU/ml), and rifampicillin (4.5 μg/ml). […] Identical procedures will be used for digoxin isolates.

serum protein [3] = test: Free fraction by centrifugation; assay type: in vitro ADME; settings: for fraction unbound at 60 min: centrifugation time 60 minutes
Protocol: Free fraction of digitoxin increased with centrifugation time from 18% at 10 minutes to 37% at 80 minutes (500 g) without reaching plateau levels.

serum protein [4] = test: Serum protein binding by equilibrium dialysis; assay type: in vitro ADME, patients; settings: human, read-out: digitoxin binding (protein binding), mean (converted)
Protocol: Equilibrium was obtained after 16 hours when titrated glycoside was added to serum. When added to the buffer phase, equilibrium was reached after 60 hours. Distribution of digitoxin, for example, in buffer-buffer control, was around 50% (49.4 to 50.6%). Absorption of ^3H-labeled glycoside to the dialysis membrane was 0.2% of the added ^3H-glycoside. Digitoxin protein binding was dependent on albumin content. […] No trace of protein was found when adding concentrated perchloric acid to the buffer phase. Counting efficacy was the same whether serum or buffer aliquots were added to the counting fluid. The counting error for buffer samples containing the smallest amount of radioactivity was 1% to 1.5%. Chamber equilibrium dialysis gave similar results. […] No significant change in digitoxin binding was found when the sera from 9 patients were dialyzed at 20° C. (mean, 96.7%) and at 37° C. (mean, 96.9%). Digoxin isolates will be used under similar conditions.

guinea pig = test: Effect on PR interval (AV node conduction) and cardiac contractibility in anesthetized open-chest guinea pig; assay type: in vivo; settings: pentobarbital anesthesia, IV infusion at 6 μg/kg/min continuously
Protocol: The guinea pig or rat is anesthetized with pentobarbital at 40 mg/kg IP, then connected to an EKG recorder. The animal is then placed on a small animal respirator. Aseptic surgical instruments are soaked in ethanol and then flamed. An incision is made in the chest wall to open the chest. A Walton Brody stain gauge arch is sutured to the right ventricle to measure contractile changes. The refractoriness of the AV node is determined by measuring the PR interval on the surface EKG. Graphs can be created from the data displaying the dose related change in the PR interval to the dose related contractile augmentation. Digoxin or chiral isolates are infused through the jugular vein at concentrations (from 0.1 μM and then to 10 μM) at a constant rate by infusion pump, to determine the differential effects on the AV node and cardiac contractibility. The infusions are continued to a 50% level augmentation in contractibility or the development of ventricular tachycardia. To maintain a consistent level of anesthesia, pentobarbital 20 mg/kg IP or 10 mg/kg IV for more immediate action at 30-minute intervals may be administered.
The effect of digoxin and one of the two chiral isomers was evaluated in the guinea pig. Guinea pigs were anesthetized with pentobarbital. […] An EKG was continuously recorded. Conduction through the AV node was determined by measuring the PR interval on the surface EKG. […]

CC1COc2c(N3CCN(C)CC3)c(F)cc3c(=O)c(C(=O)O)cn1c23 (single isomer, unassigned; (-)) [(−)-Ofloxacin]
activity relative to the racemate [1]: 8-128 times

rifampicillin
changes in the serum protein binding of digitoxin (serum protein [2]): None of these induced significant changes

C[C@H]1O[C@@H](O[C@H]2[C@@H](O)C[C@H](O[C@H]3[C@@H](O)C[C@H](O[C@H]4CC[C@@]5(C)[C@H](CC[C@@H]6[C@@H]5CC[C@]5(C)[C@@H](C7=CC(=O)OC7)CC[C@]65O)C4)O[C@@H]3C)O[C@@H]2C)C[C@H](O)[C@@H]1O [digitoxin]
fraction unbound at 10 min (serum protein [3]; centrifugation time 10 minutes, 500 g): 0.18
fraction unbound at 60 min (serum protein [3]; 135 g): 0.059
fraction unbound at 60 min (serum protein [3]; 560 g): 0.157
fraction unbound at 80 min (serum protein [3]; centrifugation time 80 minutes, 500 g): 0.37
fraction unbound (serum protein [4]; sera from 9 patients dialyzed at 20° C.): 0.033
fraction unbound (serum protein [4]; sera from 9 patients dialyzed at 37° C.): 0.031

O=C1NC(=O)C(c2ccccc2)(c2ccccc2)N1 [phenytoin]
changes in the serum protein binding of digitoxin (serum protein [2]): None of these induced significant changes

CC1O[C@@H](O[C@H]2C(O)C[C@H](O[C@H]3C(O)C[C@H](OC4CC[C@@]5(C)[C@H](CC[C@@H]6[C@@H]5C[C@@H](O)[C@]5(C)[C@@H](C7=CC(=O)OC7)CC[C@]65O)C4)OC3C)OC2C)CC(O)[C@@H]1O (stereo partly shown) [Digoxin]
PR interval on the surface EKG (conduction through the AV node) (guinea pig): progressive increase in PR interval
cardiac contractibility as measured by the strain-gauge arch (guinea pig): increase in cardiac contractibility

CCN(CC)CCNC(=O)c1ccc(N)cc1 [procainamide]
changes in the serum protein binding of digitoxin (serum protein [2]): None of these induced significant changes

heparin
changes in the serum protein binding of digitoxin (serum protein [2]): None of these induced significant changes
